Measured values: patent US10548898B2, “Quinazoline compounds” (Gilead Sciences, Inc., priority 2014, dated 2020)
Read-outs that look alike come from different tables or passages of the source.

Assays:
Type in all cases: cell-based
HIV-1 HBX2 (wild type) = assay: High throughput cytopathic effect assay in MT-4 cells, wild type HIV-1
Excerpt: (§1) Compounds were screened in a miniaturized, high throughput cytopathic effect assay for activity against HIV-1 HBX2 (wild type) and HIV-1 reverse transcriptase mutants K103N and Y181C. In Tables 1 and 2 below. “w.t.” refers to results of the tested compounds run with the wildtype 1 and “w.t, assay 2” refers results of the tested compounds run with the wildtype on the same day as the testing of the compounds with the mutants. Thus, “w.t, assay 2” was run under the same conditions as the testing of the compounds with the mutants and provides a direct comparison with the results from the testing with the mutants.
(§2) Ten-point serial dilutions of compounds with half-log step size were generated in DMSO. AZT ([…]) was used as the positive control and DMSO as the negative control. The Echo acoustic dispenser was used to deliver 200 nL of serially diluted compound into sterile 384 well tissue culture assay plates. Two million MT-4 cells were incubated with each of the 3 viruses at MOI of 0.0005 in separate 1 mL infection tubes for 1 hour at 37° C. The cells were diluted in cell culture medium (RPMI+10% FBS) to 50.000 cells/mL. The infected cells were added to 384 well assay plates containing serially dilute compounds. Assay plates were incubated for 5 days in a humidified incubator set at 37° C. and 5% CO2. To measure the cytopathic effect of HIV, 40 μL Cell TiterGlo was added to each well and the resulting luminescence signal is read with the Envision plate reader (Perkin Elmer). Data were normalized to positive and negative controls in each plate and expressed as % CPE Protection. EC50 values were defined as the compound concentration that caused a 50% decrease in luminescence signal, and were calculated by non-linear regression using Pipeline Pilot software by applying a four parameter fit equation (Accelrys, San Diego, Calif.).

[1] = system: HIV-1 reverse transcriptase mutant K103N; assay: High throughput cytopathic effect assay in MT-4 cells, K103N mutant; settings: for EC50: Human immunodeficiency virus 1, MT4, 120 h, read-out: MT4 EC50 (nM) against K103N; for FC against mutant K103N: fold change of MT4 EC50 versus w.t. assay 2
Excerpt: as §1, §2

[2] = system: HIV-1 reverse transcriptase mutant Y181C; assay: High throughput cytopathic effect assay in MT-4 cells, Y181C mutant; settings: for EC50: Human immunodeficiency virus 1, MT4, 120 h, read-out: MT4 EC50 (nM) against Y181C; for FC against mutant Y181C: fold change of MT4 EC50 versus w.t. assay 2
Excerpt: as §1, §2

[3] = system: HIV-1 recombinant strain encoding reverse transcriptase mutation K103N; assay: Resistance profile against HIV-1 RT mutants in MT-2 cells, K103N; settings: ratio of mean EC50 mutant/WT virus
Description: (§3) Compounds were tested for antiviral activity against a panel of NNRTI resistant viruses. A panel of 8 clonal site-directed mutant viruses representing the major resistance development pathways against rilpivirine (“RPV”), efavirenz (“EFV”), and nevirapine (“NVP”), containing both single and double mutations within HIV-1 reverse transcriptase was employed. Further details and background can be found in Janssen et al. J. Med. Chem, 2005, 48, 1901-1909; Das et al., Proc. Nat. Acad. Sci., 2008, vol., 105, no. 5, 1466-1471; and Kuroda et al., Nature Chemistry, 2013, DOI: 10.1038/NCHEM. 1559. […] HIV-1 recombinant strains encoding reverse transcriptase mutations K103N, Y181C, Y188L, G190A, K103N/Y181C, L1001/Y181C, E138K or E138KIM 184V were constructed by site-directed mutagenesis. Wild-type and mutant viruses were prepared by transfecting infectious proviral HXB2-based cDNA clones into MT-2 cells and harvesting the cell supernatants. MT-2 cells were infected with wild-type and mutant HIV-1 strains at a multiplicity of infection (MOI) of 0.005 by gentle mixing for 3 hours at 37° C. and then added at a density of 16,667 cells per well in 50 μL complete RPMI cell culture media (containing 10% fetal bovine serum (FBS) and 10% penicillin-streptomycin) to 96-well plates containing 50 μL of a 3-fold serial dilution of test compounds in RPMI medium. After 5 days of incubation at 37° C. in a humidified incubator in the presence of 5% CO2. 100 μL of Cell Titer-Glo™ Reagent (Promega Biosciences, Inc., Madison, Wis.) was added to each well and the relative light units (RLU) measured on an Envision plate reader. […] The EC50 value was defined as the compound concentration inducing a 50% decrease in virus replication. Data analysis for the antiviral activity observed in MT-2 cells was performed using XL-Fit™ software (IDBS, Guildford, Surrey, UK) to calculate EC50 from an 8-point dose-response curve using the following equation:
(§4) [formula] where y=virus inhibition, x=drug concentration, M=maximum inhibition, H=minimum inhibition and n=Hill coefficient, EC50 values (mean±standard deviation) were calculated from at least three independent experiments performed in triplicate. The level of resistance was calculated as a ratio of the mean EC50 for each mutant/WT virus. Results are disclosed in FIG. 1 and in Tables 3 and 4 below.

[4] = system: HIV-1 recombinant strain encoding reverse transcriptase mutation Y181C; assay: Resistance profile against HIV-1 RT mutants in MT-2 cells, Y181C; settings: ratio of mean EC50 mutant/WT virus
Description: as §3, §4

[5] = system: HIV-1 recombinant strain encoding reverse transcriptase mutation L100I/Y181C; assay: Resistance profile against HIV-1 RT mutants in MT-2 cells, L100I/Y181C; settings: ratio of mean EC50 mutant/WT virus
Description: as §3, §4

[6] = system: HIV-1 recombinant strain encoding reverse transcriptase mutation K103N/Y181C; assay: Resistance profile against HIV-1 RT mutants in MT-2 cells, K103N/Y181C; settings: ratio of mean EC50 mutant/WT virus
Description: as §3, §4

[7] = system: HIV-1 recombinant strain encoding reverse transcriptase mutation Y188L; assay: Resistance profile against HIV-1 RT mutants in MT-2 cells, Y188L; settings: ratio of mean EC50 mutant/WT virus
Description: as §3, §4

hERG channels = molecular target: T1, hERG channels (Homo sapiens, UniProt Q12809); assay: hERG assay, whole cell recordings in CHO cell line stably expressing hERG channels; settings: CHO cells, whole cell patch clamp; greater than values indicate the maximum achievable concentration in the assay
T1 construct: host or cells: CHO cell line stably expressing hERG
T1 sequence (Q12809 whole entry): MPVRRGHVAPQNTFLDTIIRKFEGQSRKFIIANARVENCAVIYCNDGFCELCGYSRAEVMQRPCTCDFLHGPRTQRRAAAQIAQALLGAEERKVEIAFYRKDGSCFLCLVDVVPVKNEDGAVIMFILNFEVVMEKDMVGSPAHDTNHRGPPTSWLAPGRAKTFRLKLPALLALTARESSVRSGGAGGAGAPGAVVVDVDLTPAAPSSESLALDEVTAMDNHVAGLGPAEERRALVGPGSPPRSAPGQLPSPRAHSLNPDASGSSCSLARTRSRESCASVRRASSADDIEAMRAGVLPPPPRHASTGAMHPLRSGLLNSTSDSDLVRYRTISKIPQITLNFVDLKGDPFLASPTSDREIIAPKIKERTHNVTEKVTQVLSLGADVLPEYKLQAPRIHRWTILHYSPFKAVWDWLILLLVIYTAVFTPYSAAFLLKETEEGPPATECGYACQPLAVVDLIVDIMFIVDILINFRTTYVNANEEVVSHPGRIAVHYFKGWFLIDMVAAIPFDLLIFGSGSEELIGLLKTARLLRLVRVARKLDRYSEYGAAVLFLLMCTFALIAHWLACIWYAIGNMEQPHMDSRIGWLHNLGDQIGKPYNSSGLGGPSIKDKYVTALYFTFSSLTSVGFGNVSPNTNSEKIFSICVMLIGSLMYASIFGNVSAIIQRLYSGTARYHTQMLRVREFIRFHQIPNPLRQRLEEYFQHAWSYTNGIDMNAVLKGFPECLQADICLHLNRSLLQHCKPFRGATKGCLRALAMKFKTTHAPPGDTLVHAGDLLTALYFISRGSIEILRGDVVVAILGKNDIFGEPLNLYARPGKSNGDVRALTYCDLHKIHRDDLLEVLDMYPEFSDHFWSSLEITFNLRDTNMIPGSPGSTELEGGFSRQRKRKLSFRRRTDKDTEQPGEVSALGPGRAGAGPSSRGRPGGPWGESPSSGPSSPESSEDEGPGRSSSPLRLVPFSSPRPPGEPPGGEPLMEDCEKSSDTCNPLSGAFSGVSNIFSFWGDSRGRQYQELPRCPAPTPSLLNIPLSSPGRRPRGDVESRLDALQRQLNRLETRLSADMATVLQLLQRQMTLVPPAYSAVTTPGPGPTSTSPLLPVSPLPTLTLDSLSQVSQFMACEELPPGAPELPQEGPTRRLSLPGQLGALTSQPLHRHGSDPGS
Description: AVIVA's CHO cell line, which stably expresses hERG channels, was used for the study. Cells were cultured in DMEM/F12 containing 10% FBS, 1% penicillin/streptomycin and 500 μg/ml G418. Before testing, cells were harvested using Accumax (Innovative Cell Technologies).
External Solution: 2 mM CaCl2; 2 mM MgCl2; 4 mM KCl; 150 mM NaCl; 10 mM Glucose; 10 mM HEPES; 305-315 mOsm; pH 7.4 (adjusted with 5M NaOH.)
Internal Solution: 140 mM KCl; 10 mM MgCl2; 6 mM EGTA; 5 mM HEPES-Na; 5 mM ATP-Mg; 295-305 mOsm; pH 7.25 (adjusted with 1M KOH).
Whole cell recordings were performed using PX 7000A (Axon Instruments) with AVIVA's SealChip™ technology. Cells were voltage clamped at a holding potential of −80 mV. The hERG current was then activated by a depolarizing step to −50 mV for 300 ms. This first step at −50 mV was used as a baseline for measuring peak amplitude of the tail current. Next, a voltage step to +20 mV was applied for 5 s to activate the channels. Finally, a step back to −50 mV for 5 s removed activation and the deactivating tail current was recorded.
All test articles were prepared from 10 mM DMSO stock solutions. Solutions were mixed by sonication for 20 min, followed by vigorous vortexing. Prior to testing, compounds were diluted to test concentrations in glass vials using External Solution. Dilutions were prepared no longer than 20 min prior to use.
After achieving whole cell configuration, cells were monitored for 90 s to assess stability and then washed with External Solution for 66 s. The voltage protocol was then applied to the cells every 12 s throughout the procedure. Only stable cells with recording parameters above threshold were allowed to enter the drug addition procedure.
External solution containing 0.1% DMSO (vehicle) was applied to the cells to establish a baseline. After allowing the current to stabilize for 3 to 10 min, test articles were applied. Test article solutions were added to cells in 4 separate additions. Cells were kept in test solution until effect of the test article reached steady state, to a maximum of 12 min. Next, 1 μM cisapride (positive control) was added. Finally, washout with External Solution was performed until the recovery current reached steady state.
Data analysis was performed using DataXpress (Axon Instruments), Clampfit (Axon Instruments) and Origin (OriginLab Corporation) software. The greater than values in Table 5 indicate the maximum achievable concentration in the assay (e.g., compounds achieving their solubility limit).

[8] = Human immunodeficiency virus 1, MT4, 120 h, MT-4 cells, 5 days, cytopathic effect, Cell TiterGlo, read-out: MT4 EC50 (nM) against w.t.
[9] = Human immunodeficiency virus 1, MT4, read-out: MT4 EC50 (nM) against w.t. assay 2

Compound | EC50 (HIV-1 HBX2 (wild type); [8]) [nM] | EC50 (HIV-1 HBX2 (wild type); [9]) [nM] | EC50 [1] [nM] | FC against mutant K103N [1] | EC50 [2] [nM] | FC against mutant Y181C [2] | Biology resistance panel-low throughput fold change (FC) K103N [3] | Biology resistance panel-low throughput fold change (FC) Y181C [4] | Biology resistance panel-low throughput fold change (FC) L100I/Y181C [5] | Biology resistance panel-low throughput fold change (FC) K103N/Y181C [6] | Biology resistance panel-low throughput fold change (FC) Y188L [7] | hERG (hERG channels) [µM] | EC50 (HIV-1 HBX2 (wild type); Human immunodeficiency virus 1, MT4, 120 h, read-out: MT4 EC50 (nM) against w.t.) [nM]
N#C/C=C/c1cc(F)c(-c2cccc3cnc(Nc4ccc(C#N)cc4)nc23)c(F)c1 [Compound 5, (E)-4-((8-(4-(2-Cyanovinyl)-2,6-difluorophenyl)quinazolin-2-yl)amino)benzonitrile] | 1.3 | 1.5 | 2.5 | 1.7 | 12 | 8.2 | 1.6 | 15.4 | 18.9 | 208.0 | 174.0 | – | –
Cc1cc(/C=C/C#N)cc(C)c1-c1cccc2c(N)nc(Nc3ccc(C#N)nn3)nc12 [Compound 11, (E)-6-((4-Amino-8-(4-(2-cyanovinyl)-2,6-dimethylphenyl)quinazolin-2-yl)amino)pyridazine-3-carbonitrile] | 4.7 | 4.2 | 5.2 | 1.2 | 126 | 29.8 | 2.1 | 154.0 | 85.0 | 157.0 | 161.0 | >3 | –
Cc1cc(/C=C/C#N)cc(C)c1-c1cccc2c(N)nc(Nc3cnc(C#N)cn3)nc12 [Compound 12, (E)-5-((4-Amino-8-(4-(2-cyanovinyl)-2,6-dimethylphenyl)quinazolin-2-yl)amino)pyrazine-2-carbonitrile] | – | 1.8 | 1.7 | 0.9 | 12.5 | 6.9 | – | – | – | – | – | >3 | 1.8
Cc1cc(/C=C/C#N)cc(C)c1-c1cccc2cnc(Nc3ccc(C#N)cn3)nc12 [Compound 13, (E)-6-((8-(4-(2-Cyanovinyl)-2,6-dimethylphenyl)quinazolin-2-yl)amino)nicotinonitrile] | 3.2 | 4.3 | 5.9 | 1.4 | 27.4 | 6.4 | – | – | – | – | – | 1.3 | –
Cc1cc(/C=C/C#N)cc(C)c1-c1cc(F)cc2cnc(Nc3ccc(C#N)cc3)nc12 [Compound 4, (E)-4-((8-(4-(2-Cyanovinyl)-2,6-dimethylphenyl)-6-fluoroquinazolin-2-yl)amino)benzonitrile] | 9.2 | 9.8 | 19.1 | 2.0 | 47 | 4.8 | 1.4 | 4.9 | 5.4 | 12.8 | 16.9 | – | –
COc1cc(Nc2nc(N)c3cccc(-c4c(C)cc(/C=C/C#N)cc4C)c3n2)ccc1C#N [Compound 3, (E)-4-((4-Amino-8-(4-(2-cyanovinyl)-2,6-dimethylphenyl)quinazolin-2-yl)amino)-2-methoxybenzonitrile] | – | 12.9 | 12 | 0.9 | 50.2 | 3.9 | 1.0 | 3.4 | 1.0 | 3.4 | 13.7 | – | –
